From US11254671B2, “Chemical compounds” (GLAXOSMITHKLINE INTELLECTUAL PROPERTY DEVELOPMENT LIMITED, priority 2017, dated 2022) come the findings set out here.

For this assay, the system named is type I collagen deposition in primary lung fibroblasts. Put plainly: Highthroughput type I collagen deposition (scar-in-a-jar) high content screening assay. The assay is classed as cell-based. To be noted: Homo sapiens, Primary lung fibroblast, 72 h, human pulmonary fibroblasts, TGF-β 1 ng/ml, Ficoll crowding, mean of multiple experiments, read-out: mean pIC50, inhibition of type I collagen deposition (converted). As for the experimental part: Example 53 Highthroughput Type I Collagen Deposition (Scar-in-a-Jar) High Content Screening Assay
Highthroughput, cellular type I collagen deposition was measured by adapting a published method; scar-in-a-jar (Chen et al., 2009) to primary lung fibroblasts derived from human tissue and combining with high content analysis to permit fluorescent quantification of collagen deposited in the extracellular matrix (ECM). The human biological samples were sourced ethically and their research use was in accord with the terms of the informed consents
Test compounds were dissolved in 100% DMSO to give 10 mM (stocks) and further diluted to give half log dilutions to generate an 11 point concentration response curve. 1 ul was transferred to 384-well plates (Greiner Group, Kremsmunster, Austria, Catalogue No Greine 781280r).
Human pulmonary fibroblasts were maintained in DMEM media (Gibco, Catalogue No 21969) supplemented with 4 mM L-glutamine (Gibco Catalogue No 25030-024) and 10% heat inactivated FBS (Gibco, Catalogue No 10099-141) at 37° C. in 10% CO2. Cells were harvested and resuspended at 4×10^6 cells/ml in a T175 cell culture flask (BD Falcom, Catalogue No: 353112) containing 50 mL of culture media. After 4 days 37° C. in 10% CO2, cells were harvested and seeded at 4000 cells per well (50 μL/well) into 384-well plates (BD Falcon, Catalogue No 353962Greiner) in assay media (0.4% heat inactivated FBS, 4 mM L-glutamine). Plates were sealed with breathable seals (Sigma, Catalogue No. BEM-1). Assay plates were incubated for 72 h at 37° C. in 10% CO2.
Assay media was supplemented with 112.5 mg/ml Ficoll 70 (Sigma, Catalogue No F2878), 75 mg/ml Ficoll 400 (Sigma, Catalogue No F4375) and 50 μg/ml ascorbic acid (Sigma, Catalogue No A8960). 30 μL assay media were added to 1 μl compound (37 μM compound concentration in 1% DMSO). Diluted compounds (10 μL) were transferred to plates containing cells and incubated for 3 h at 37° C. in 10% CO2. Transforming growth factor (TGF)-β (R&D systems, Catalogue No 100-B/CF) was reconstituted to give 10 μg/mL (stock) and further diluted in assay media containing Ficoll and ascorbic acid (1 in 3333). TGF-β was added to cell plates (1 ng/ml final) and cells incubated for 72 h at 37° C. in 10% CO2.
Media was aspirated from cells and 30 μL/well 100% ice-cold methanol added and incubated at RT for 5 min to fix cells. Methanol was aspirated and cells washed with PBS (3×). To block and permeabilise, cells were incubated with PBS containing 1% BSA and 0.1% Triton X 100 for 20 min, followed by PBS wash (3×). Cells were incubated with mouse anti human type I collagen monoclonal antibody (Sigma, Catalogue No C2456) diluted 1:1000 in PBS for 24 h at 4° C. Cells were washed with PBS containing 0.1% Tween-20 (3×) and incubated with secondary alexa fluor 488 goat-anti-mouse antibody (Invitrogen, Catalogue No A11001, 1 in 500 in PBS) and Hoechst 33342 (Sigma, Catalogue No H21492), 1 in 1000 in PBS) for 1 h at RT, prior to washing with PBS containing 0.1% Tween (×4).
Type I collagen immunoreactivity was detected using the INCell 2000 Analyzer (GE Healthcare, INcell 2000) set to excitation and emission wavelengths for DAPI and FITC with laser focus and exposure adjusted to appropriate levels. Images were imported and analysed using Columbus software (Perkin Elmer) and computational algorithms to quantify “total collagen area” and “cell count”.
Data analysis was performed by determining % inhibition values for test compounds relative to the minimum (media only) and maximum responses (TGF-βstimulation) with non-linear regression analysis to determine IC50 values for test compounds.
Take `CC[C@H]1COCCN1c1cc(CS(C)(=O)=O)cc(-c2ccc3[nH]c(CO)cc3n2)n1` [Example 34, (5-{6-[(3S)-3-ethylmorpholin-4-yl]-4-(methanesulfonylmethyl)pyridin-2-yl}-1H-pyrrolo[3,2-b]pyridin-2-yl)methanol]: the IC50 was 39.8 to 1000 nM. Regarding `CC[C@H]1COCCN1c1cc(CS(=O)(=O)N(C)C)cc(-c2ccc3[nH]c(CO)cc3n2)n1` [Example 35, 1-{2-[(3S)-3-ethylmorpholin-4-yl]-6-[2-(hydroxymethyl)-1H-pyrrolo[3,2-b]pyridin-5-yl]pyridin-4-yl}-N,N-dimethylmethanesulfonamide], the IC50 was 39.8 to 1000 nM. As to `CNCc1cc2nc(-c3cc(C4(S(C)(=O)=O)CCOCC4)cc(N4C5CCC4COC5)n3)ccc2[nH]1` [Example 40, ({5-[4-(4-methanesulfonyloxan-4-yl)-6-{3-oxa-8-azabicyclo[3.2.1]octan-8-yl}pyridin-2-yl]-1H-pyrrolo[3,2-b]pyridin-2-yl}methyl)(methyl)amine], the IC50 was 39.8 to 1000 nM.
